Data: article PMC5507300, “Antibacterial small molecules targeting the conserved TOPRIM domain of DNA gyrase” (PLoS ONE, 2017)
In brackets after ≈: the same amount, converted by molar mass.

How the values were obtained:
[1] = test system: E. coli BW25113 ΔtolC; assay: Broth microdilution MIC, E. coli BW25113 ΔtolC; format: cell-based; settings: Escherichia coli
Source text: E. coli HS151 (ΔtolC) has been described previously. Gyrase inhibitor-resistant isolates (GYR101-108) were derived by selection for spontaneous resistance to MRL-770 or MRL-423 (Fig 1) in E. coli HS151 as described below. E. coli BW25113 and the Keio gene deletion collection based on BW25113 [25] were obtained from Thermo Fisher Scientific (Waltham, MA) and described in [26]. The plasmid-borne FQ resistance determinant, qnrVC3 [27], was kindly provided by D. Hooper (Massachusetts General Hospital). MB9796 (A. baumannii) is a derivative of MB9797 (ATCC19606) lacking lipopolysaccharide. The efflux-defective P. aeruginosa strain MB5890 (CB398) is a derivative of MB5919 (PAO1). MB2884 (E. coli) and CL15245 (K. pneumoniae) are clinical isolates from the Merck & Co., Inc., Kenilworth, NJ, USA, strain collection. S. aureus COL is a methicillin-resistant clinical isolate.
Compound doubling dilutions were prepared in 100% DMSO (Sigma Aldrich) and 2 μL of each dilution was transferred to a 96-well plate with lid (Thermo Scientific). Inoculum for all MIC testing was prepared using the BBL Prompt Inoculation System (Becton Dickinson, Franklin Lakes, NJ USA) as described by the manufacturer to produce a suspension of cells at approximately 1.5 x 10^8 colony forming units (CFU)/mL [34–36] and a further dilution (1:1000) was made into cation adjusted Mueller-Hinton broth (CAMH broth, Becton-Dickinson). One hundred μL of this inoculum were then transferred to each well of the 96-well plate containing diluted compound (above). Plates were covered and incubated overnight (18 hrs.) at 37°C.
The yacG deletion allele from the Keio collection was amplified by PCR (primers: […] and […]) and moved to BW25113 ΔtolC as described below. The E. coli strain BW25113 ΔtolC containing pKD46 [25] was used to inoculate SOB (Invitrogen)/0.2% w/v arabinose (Sigma Aldrich)/ampicillin (100 μg/mL) and grown overnight at 30°C. The overnight culture was then diluted 1/40 into 20 mL fresh SOB/0.2% w/v arabinose/ampicillin (100 μg/mL) and grown at 30°C while shaking for ~3 hrs until OD600 = 0.5. […]

[2] = target: T1, E. coli topoisomerase IV (Escherichia coli, UniProt P20083); assay: E. coli topoisomerase IV decatenation reaction; format: biochemical; settings: maximum achievable concentration (200 μM), kDNA decatenation
T1 construct: purchased TopoGEN, Inc
T1 sequence (P20083 whole entry): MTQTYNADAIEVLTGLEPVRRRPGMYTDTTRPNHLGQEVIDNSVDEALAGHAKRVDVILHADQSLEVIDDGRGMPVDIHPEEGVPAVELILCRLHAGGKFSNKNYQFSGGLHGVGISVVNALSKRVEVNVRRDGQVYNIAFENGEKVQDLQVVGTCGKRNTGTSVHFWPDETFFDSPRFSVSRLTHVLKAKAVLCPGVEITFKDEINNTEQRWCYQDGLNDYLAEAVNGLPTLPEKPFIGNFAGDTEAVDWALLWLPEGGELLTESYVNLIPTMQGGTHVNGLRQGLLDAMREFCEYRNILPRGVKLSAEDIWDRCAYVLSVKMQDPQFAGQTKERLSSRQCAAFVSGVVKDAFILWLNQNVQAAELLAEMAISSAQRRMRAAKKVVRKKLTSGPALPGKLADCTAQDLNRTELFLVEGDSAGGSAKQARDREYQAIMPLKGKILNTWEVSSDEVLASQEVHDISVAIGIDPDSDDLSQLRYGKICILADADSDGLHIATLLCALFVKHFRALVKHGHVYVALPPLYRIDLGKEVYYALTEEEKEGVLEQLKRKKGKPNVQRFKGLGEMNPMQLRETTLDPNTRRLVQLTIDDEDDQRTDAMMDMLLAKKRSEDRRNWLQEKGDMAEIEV
T1 sequence (P0AFI2 whole entry, further chain): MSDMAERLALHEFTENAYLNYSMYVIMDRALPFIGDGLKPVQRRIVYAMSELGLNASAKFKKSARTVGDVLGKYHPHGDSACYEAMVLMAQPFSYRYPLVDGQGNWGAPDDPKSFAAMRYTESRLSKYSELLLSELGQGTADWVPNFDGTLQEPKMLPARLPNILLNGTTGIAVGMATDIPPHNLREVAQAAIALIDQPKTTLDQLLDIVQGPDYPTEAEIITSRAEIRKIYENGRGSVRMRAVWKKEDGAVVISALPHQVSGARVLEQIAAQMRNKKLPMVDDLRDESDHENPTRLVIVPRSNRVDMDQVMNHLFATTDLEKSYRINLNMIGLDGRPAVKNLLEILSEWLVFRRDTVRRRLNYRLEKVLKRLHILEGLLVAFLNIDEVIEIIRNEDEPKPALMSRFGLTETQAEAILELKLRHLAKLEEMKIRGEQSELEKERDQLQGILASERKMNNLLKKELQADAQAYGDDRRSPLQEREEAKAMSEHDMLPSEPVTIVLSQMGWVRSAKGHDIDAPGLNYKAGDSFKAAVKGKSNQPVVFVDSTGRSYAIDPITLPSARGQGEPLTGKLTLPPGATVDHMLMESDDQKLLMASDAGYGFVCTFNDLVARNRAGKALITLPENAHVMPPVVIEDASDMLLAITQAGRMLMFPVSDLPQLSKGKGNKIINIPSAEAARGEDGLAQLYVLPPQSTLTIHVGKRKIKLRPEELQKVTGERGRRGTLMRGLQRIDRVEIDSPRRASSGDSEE

Row | Compound | MIC [1] [µg/mL] | activity against E. coli topoisomerase IV [2]
1 | Cn1ncc2cc(-c3cnnn3C3CCN(C(=O)Nc4cc(Cl)cc(Cl)c4)CC3)ccc21 [MRL-423] | 0.25 (≈ 0.532 µM) | 
2 | Cn1ncc2cc(-c3nnnn3C3CCN(C(=O)Nc4ccc(Cl)c(Cl)c4)CC3)ccc21 [MRL-1082] |  | does not inhibit
